{"source": "patent US20100173873A1", "about": "“TREATMENT OF METASTASIZED TUMORS” (Novartis Vaccines and Diagnostics, Inc., priority 2005, published 2010)", "tested_on": "PC-3M-luc tumor cells", "test": "PC-3M-luc bone metastatic prostate model", "assay_type": "in vivo, nude mice", "conditions": "15 mg/kg i.p. 3 times per week", "description": "Cell lines. Metastatic human prostate cell line PC-3M expressing null p53, del PTEN, VEGFR, FGFR and stably transfected with a construct of luciferase were obtained under a licensing agreement with Xenogen.\nIn vivo efficacy studies. […]. Animals received sterile rodent chow and water ad libitum and were housed in sterile filter-top cages with 12 hour light/dark cycles. All experiments were conducted under the guidelines of the Association for Assessment and Accreditation of Laboratory Animal Care International. PC-3M luc bone metastatic model. Human prostate cancer cell line PC-3M-luc cells (1.5×10^6 cells) stably transfected with a construct of luciferase were injected via intracardiac injections. Bioluminescent imaging (Xenogen's IVIS® imaging system) was used to non-invasively monitor the in vivo growth and metastasis of PC-3M-luc tumors after cell inoculation. Nearly all PC-3M-luc tumor cell-injected animals developed prostate lesions, which were mainly localized in the femur, and mandibles. […]. Mice were monitored daily and were euthanized when moribund.\nImmunohistochemistry. Bone (femurs, mandible) samples were decalcified (Protocol™, Fisher Diagnostics, Middletown, Va.). Paraffin blocks were sectioned to […] thickness and placed on positively charged glass slides. Tissues were stained with hematoxylin and eosin for general tissue morphology and identification of PC-3M cells in bone.\nNude mice were inoculated with PC-3M-Luc cells intracardiacally with 1.5×10^6 cells. […]. The PC-3M-luc cell lines were purchased from Xenogen and the mice were imaged using Xenogen's IVIS® imaging system."}
{"smiles": "CC(=O)O[C@H]1C(=O)[C@@]2(C)[C@H]([C@H](OC(=O)c3ccccc3)[C@]3(O)C[C@H](OC(=O)[C@H](O)[C@@H](NC(=O)c4ccccc4)c4ccccc4)C(C)=C1C3(C)C)[C@]1(OC(C)=O)CO[C@@H]1C[C@@H]2O", "note": "[taxol, reference compound]", "values": [{"measurement": "Treatment efficacy vs. vehicle", "value": "No difference in treatment efficacy"}]}
